These results are taken from patent US20250171404A1, “PCNA INHIBITORS AND USES THEREOF” (CITY OF HOPE, priority 2022, published 2025).

One test has as its system HTC-116. In words: Cell growth IC50, screening of AOH1160 analogs. As to conditions: HTC-116; read-out: IC50 values. The class given is cell-based. Here is the method: (§1) FIG. 29. IC50 data for select compounds. The indicated cell lines were seeded at 10^4 cells per well in a 96 well plate. After allowing to attach to the plate overnight, cells were treated with various concentrations of the indicated compounds in triplicates for 72 hrs. The cell growth was measured by an SRB assay. The cell abundances under each treatment condition relative to the baseline were averaged and graphed ±S.D. The baseline is defined as the median value of the cell abundances under the treatment by the two lowest compound concentrations. The IC50 was calculated by the Prism program.

The next test deals with OVCAR8. In words: Cell growth IC50, screening of AOH1160 analogs. Format: cell-based. As to conditions: Homo sapiens, OVCAR-8; OVCAR8; read-out: IC50 values. Here is the method: as §1
In a further test the test system is RKO. In words: Cell growth IC50, screening of AOH1160 analogs. Format: cell-based. As to conditions: Homo sapiens, read-out: IC50 values. As to the method:
as §1

In test [1] the target is T1, PCNA interaction with RPB1 (Homo sapiens, UniProt P12004).
T1 construct: expressed in transfected cells; host or cells: SK-N-AS (FLAG-RPB1 exogenous; PCNA endogenous)
The test is described as follows: PCNA interaction with RPB1 (immunoprecipitation, western blotting). The class given is cell-based. As to conditions: SK-N-AS. Here is the method: FIGS. 5A-5E. Modulation of PCNA interaction with RNA polymerase II. FIG. 5A: Chromatin-bound (CB) proteins were fractioned from HEK293T cells expressing FLAG-tagged PCNA after the cells were treated with or without 500 nM AOH1996. Proteins in complex with FLAG-PCNA were immune-precipitated and analyzed by mass spectrometry. Shown are numbers of proteins whose abundances were altered (grey) or unaltered (black) by more than 2-fold by AOH1996 treatment. FIG. 5B: SK-N-AS cells exogenously expressing a FLAG-tagged RPB1 gene were fractioned before and after being treated with 500 nM AOH1996 overnight. PCNA in complex with chromatin-bound (CB) FLAG-RBP1 were analyzed by western blotting. FIG. 5C: Human SK-N-AS cells were treated with UV in the presence or absence of AOH1996 (AOH) or R9-caPep (caPep). Whole cell extracts were analyzed by western blotting. FIG. 5D: Cells exogenously expressing FLAG-tagged wildtype RPB1 or FLAG-tagged APIM-mutant RPB1 gene were fractioned. PCNA in complex with chromatin-bound (CB) FLAG-RBP1 were analyzed by western blotting. FIG. 5E: HEK293T cells were transiently transfected with a FLAG-tagged wildtype RPB1 (APIM WT) gene or mutant RPB1 gene (APIM mutant). The intracellular MCM7 and RBP1 (both the hypo-phosphorylated RNAPIIa and hyper-phosphorylated RNAPIIo forms) were analyzed by western blot after cells were treated by the indicated agents and/or UV.
Modulating PCNA interaction with transcription machinery.
Cell fractionation and immunoprecipitation. Cells were fractionated as previously described (Li et al., 2018). Briefly, intact nuclei isolated following osmotic lysis were homogenized using a 21 G needle. Chromatin was pelleted by centrifugation and incubated overnight at 4° C. with benzonase in two volumes of nuclease buffer (20 mM HEPES pH 7.5, 1.5 mM MgCl2, 1 mM EDTA, 150 mM KCl, 10% glycerol, 0.5 U μl-1 benzonase). The resulting supernatant was collected as the CB fraction. Alternatively, we sequentially incubated the chromatin pellet with RNase A and benzonase and collected the supernatants after each digestion as the CB:RNA+ and CB:RNA− fractions, respectively (Li et al., 2018).

Test [2] can be described thus: Cell growth IC50, screening of AOH1160 analogs (cell line not given). The class given is cell-based. As to conditions: read-out: IC50 values. Here is the method:
as §1

A further test addresses T2, PCNA (Homo sapiens, UniProt P12004).
T2 construct: made in house; host or cells: E. coli Rosetta 2 (DE3)
In words: Thermal denaturation (thermal shift) assay. Format: binding. As to conditions: FIG. 24. Here is the method: FIGS. 1A-1E. AOH1160 analog interactions with PCNA. FIG. 1A: Thermal shift assay: Normalized inverse derivative thermal denaturation plots of 9 μM apo-PCNA with DMSO control is depicted with a black dashed line and PCNA in the presence of 10 μM AOH1160LE is shown in light grey and 30 μM AOH1160LE in dark grey. ΔTm values are provided. FIG. 1B: As described in FIG. 1A, in the presence of 10 μM AOH1996 depicted in light grey and 30 μM AOH1996 depicted in dark grey. FIG. 1C: Four monomers (chains A-D) of PCNA are present in the asymmetric unit of the crystal. Chains A, B, and C form the homotrimer biological unit, while chain Dis orientated perpendicular to the plane of the ring, below the interface of chains B and C and it belongs to an adjacent ring. Inset: Three molecules of AOH1160LE bind in and adjacent to the PIP box cavity of each of the PCNA ring subunits. The omit map, gray mesh, is contoured to 1.56. Two PCNA monomer subunits from adjacent rings stack against each other, placing the PIP box and IDCLs of each subunit in opposing directions. FIG. 1D: The three AOH1160LE molecules are shown as stick figure representations. Two of the compounds, left and central, bind into the PIP box cavity at known PCNA-partner/compound interaction sites. […] The electrostatic surface maps are depicted with Poisson-Boltzmann electrostatic surface potentials shown in dark grey and light grey, corresponding to −10 to +10 kT/e respectively.
Targeting the PIP box and APIM binding domain of PCNA. AOH1160, a small molecule PCNA ligand, targets the cancer-distinct L126-Y133 region of PCNA (Malkas et al., 2006) and is selectively toxic to cancer cells (Gu et al., 2018). […]
Thermal denaturation assay for PCNA-AOH1996 interaction. […] Fluorescence intensity was measured within the excitation/emission ranges 470-505/540-700 nm.

Another test relates to SK-N-AS. The test is described as follows: Cell growth IC50, screening of AOH1160 analogs. Format: cell-based. As to conditions: Homo sapiens, read-out: IC50 values. Here is the method:
as §1

T2 sequence (P12004 whole entry): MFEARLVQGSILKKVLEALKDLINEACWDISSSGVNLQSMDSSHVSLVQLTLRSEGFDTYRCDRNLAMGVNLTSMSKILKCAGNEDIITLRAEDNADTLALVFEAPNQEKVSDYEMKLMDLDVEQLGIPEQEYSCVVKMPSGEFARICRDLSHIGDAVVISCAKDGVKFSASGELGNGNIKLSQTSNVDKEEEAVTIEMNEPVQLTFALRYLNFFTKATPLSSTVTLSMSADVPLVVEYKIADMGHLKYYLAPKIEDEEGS

Consider `O=C(CNC(=O)c1cccc2ccccc12)Nc1ccccc1Sc1ccc(C(F)(F)F)cc1` [AOH1996S-4CF3, N-(2-oxo-2-((2-((4-(trifluoromethyl)phenyl)thio)phenyl)amino)ethyl)-1-naphthamide], for which the IC50 in the test with HTC-116 came out at 4.6 µM; with OVCAR8, 3.4 µM; in the test with RKO, 10 µM.

“caPep: contains the L126-Y133 sequence of PCNA that overlaps APIM-interacting region of PCNA (LGIPEQEY; UniProt P12004 126-133, looked up, fragment) [reference compound]”: in test [1] (chromatin-bound), the “PCNA interaction with RPB1” value is on record as “blocked PCNA interaction with RPB1”. Besides, in test [1] (whole cell extracts), the RPB1 levels result was “increased RPB1 levels”.

`CC(C)[C@@H](NC(=O)c1cccc2ccccc12)C(=O)Nc1ccccc1Oc1ccccc1` [AOH1160DV, (R)—N-(3-methyl-1-oxo-1-((2-phenoxyphenyl)amino)butan-2-yl)-1-naphthamide]: the IC50 in test [2] is above 10 µM.

`Cc1ccc(Sc2ccccc2NC(=O)[C@H](CCC(=O)O)NC(=O)c2cccc3ccccc23)cc1` [AOH1996SLE-4CH3, (S)-4-(1-naphthamido)-5-oxo-5-((2-(p-tolylthio)phenyl)amino) pentanoic acid]: the IC50 in test [2] is above 10 µM.

In the case of `CC(C)[C@H](NC(=O)c1cccc2ccccc12)C(=O)Nc1ccccc1Oc1ccccc1` [AOH1160LV, (S)—N-(3-methyl-1-oxo-1-((2-phenoxyphenyl)amino)butan-2-yl)-1-naphthamide], the IC50 in test [2] was above 10 µM. Besides, the “ΔTm (TSA data)” value at PCNA is reported as “very similar ΔTm compared to AOH1996”.

On to `COc1cccc(Oc2ccccc2NC(=O)c2cccc3ccccc23)c1` [AOH1996t, N-(2-(3-methoxyphenoxy)phenyl)-1-naphthamide], for which the IC50 in test [2] was above 10 µM.

Regarding `O=C(Nc1ccccc1Oc1ccccc1)c1cccc2ccccc12` [AOH1160t], the IC50 in test [2] was above 10 µM.

Take `Cc1ccc(Sc2ccccc2NC(=O)CNC(=O)c2cccc3ccccc23)cc1` [AOH1996S-4CH3, N-(2-oxo-2-((2-(p-tolylthio)phenyl)amino)ethyl)-1-naphthamide]: the IC50 was found to be 0.345 µM in the test on HTC-116, 0.291 µM in the test with OVCAR8 and 0.503 µM in the test on RKO.

For `O=C(CNC(=O)c1cccc2ccccc12)Nc1ccccc1C(=O)Nc1ccccc1` [AOH1160-2AB, N-(2-oxo-2-((2-(phenylcarbamoyl)phenyl)amino)ethyl)-1-naphthamide], the IC50 in test [2] is above 10 µM.

As to `O=C(CNC(=O)c1cccc2ccccc12)Nc1ccccc1Nc1ccccc1` [AOH1160NH], the half-maximal inhibitory concentration (IC50) in the test with HTC-116, in the test with OVCAR8 and with RKO was above 10 µM throughout.

`O=C(O)CC[C@@H](NC(=O)c1cccc2ccccc12)C(=O)Nc1ccccc1Oc1ccccc1` [AOH1160DE]: the IC50 in test [2] was above 10 µM.

For `COc1cccc(Oc2ccccc2NC(=O)CNC(=O)c2ccc(-c3ccccc3)cc2)c1` [AOH1996BiNph, N-(2-((2-(3-methoxyphenoxy)phenyl)amino)-2-oxoethyl)-[1,1′-biphenyl]-4-carboxamide], the IC50 in test [2] is above 10 µM.

Consider `COc1cccc(Oc2ccccc2NC(=O)CNC(=O)CCc2cccc3ccccc23)c1` [AOH1996eeNph, N-(2-((2-(3-methoxyphenoxy)phenyl)amino)-2-oxoethyl)-3-(naphthalen-1-yl) propanamide], for which the IC50 in test [2] is above 10 µM.

Take `O=C(CNC(=O)c1nccc2ccccc12)Nc1ccccc1Oc1ccncc1` [AOH1167]: the IC50 in test [2] was 42 µM.

For the compound `O=C(CNC(=O)c1cccc2ccccc12)Nc1ccccc1S(=O)(=O)c1ccccc1` [AOH1160SO2, N-(2-oxo-2-((2-(phenylsulfonyl)phenyl)amino)ethyl)-1-naphthamide], in test [2], the IC50 is above 10 µM.

As for `O=C(CNC(=O)c1cccc2ccccc12)Nc1ccccc1Sc1cccc(C(F)(F)F)c1` [AOH1996S-3CF3, N-(2-oxo-2-((2-((3-(trifluoromethyl)phenyl)thio)phenyl)amino)ethyl)-1-naphthamide], the IC50 with HTC-116 turned out to be 4.6 µM; in the test with OVCAR8, 2.6 µM; with RKO it was 8 µM.

As for `NCCCC[C@H](NC(=O)c1cccc2ccccc12)C(=O)Nc1ccccc1Oc1ccccc1` [AOH1160LK], the IC50 in test [2] is above 10 µM.

`NCCCC[C@@H](NC(=O)c1cccc2ccccc12)C(=O)Nc1ccccc1Oc1ccccc1` [AOH1160DK]: the IC50 in test [2] is above 10 µM.

With `O=C(CNC(=O)c1cccc2ccccc12)Nc1ccccc1Oc1ccc(O)cc1` [AOH1160-4′-OH], in the test on SK-N-AS, the IC50 is 0.156 µM.

Take `COc1cccc(Oc2ccccc2NC(=O)CNC(=O)Cc2cccc3ccccc23)c1` [AOH1996eNph, N-(2-(3-methoxyphenoxy)phenyl)-2-(2-(naphthalen-1-yl)acetamido) acetamide]: the IC50 in test [2] was above 10 µM.

On to `O=C(CCNC(=O)c1cccc2ccccc12)Nc1ccccc1Oc1ccccc1` [AOH1160e, N-(3-oxo-3-((2-phenoxyphenyl)amino)propyl)-1-naphthamide], for which the concentration for half-maximal inhibition (IC50) in test [2] was above 10 µM.

In the case of `COc1cccc(Oc2ccccc2NC(=O)[C@H](CCC(=O)O)NC(=O)c2cccc3ccccc23)c1` [AOH1996LE, (S)-4-(1-naphthamido)-5-((2-(3-methoxyphenoxy)phenyl)amino)-5-oxopentanoic acid], the IC50 in test [2] was above 10 µM.
